Test results as given in PMC11008251, “Distribution of 2,2′,5,5′-Tetrachlorobiphenyl (PCB52) Metabolites in Adolescent Rats after Acute Nose-Only Inhalation Exposure” (Environmental Science & Technology, 2024).
Read-outs that look alike come from different tables or passages of the source.

Legend:
[1] = set-up: method as in PMID 36804509; settings: 3 weeks after intraperitoneal administration of PCB52 100 mg/kg bw; cited from earlier work
[2] = PCB52 and monohydroxylated metabolite tissue levels by GC-MS/MS after 4 h nose-only inhalation; type: in vivo, Sprague–Dawley rats; settings: Sprague-Dawley, rat, inhaled
Description: PCB52 vapor for the animal exposure was generated using a published protocol.[12] Briefly, 450 g of 3 mm diameter glass beads were added to a solution of 1.5 g of PCB52 in dichloromethane. The glass beads were then coated with PCB52 by evaporating dichloromethane in a water bath at 29 °C using a rotary evaporator (Buchi Rotavapor R-200, New Castle, DE) under reduced pressure. For the animal exposures, high-efficiency particulate air (HEPA)-filtered laboratory air was passed through the PCB52-coated glass beads at a flow rate of 12 L/min to expose animals to PCB52 vapor in a nose-only exposure apparatus (Figure 1A). The flask of PCB52-coated beads and mixing chamber were kept at 25.0 °C using a precision water bath to facilitate the volatilization of PCB52. The PCB52-laden air was passed through a mixing chamber and distributed to the nose-only inhalation apparatus at a flow rate of 4 L/min per tower (n = 3) and a sampling cartridge filled with 10 g of Amberlite XAD-2 polymeric absorbent resin (Sigma-Aldrich, St. Louis, MO) at a flow rate of 2 L/min. The specified flow rates were generated using flow meter-regulated pumps. The XAD-2 cartridge was used to capture PCB52 vapor to characterize the exposure atmosphere. A sham exposure group was exposed in parallel to HEPA-filtered clean air in an identical nose-only exposure system in an adjacent lab with no supplied PCB52.
The Institutional Animal Care and Use Committee of the University of Iowa approved all of the animal protocols. Animals were housed in a temperature- and humidity-controlled room (21 °C, 55% relative humidity) with a 12 h light/dark cycle in an Association for the Assessment and Accreditation of Laboratory Animal Care (AAALAC) accredited animal facility. Animals were provided with food (sterile Teklad 5% stock diet, Harlan, Madison, WI) and water ad libitum throughout the study. Thirty-six male and female Sprague–Dawley rats (7 weeks of age; Charles River, Wilmington, MA) were allowed to acclimate to the animal facility for 8 days after arrival. Prior to exposure, rats (227 ± 27 and 197 ± 13 g, male and female, respectively) were randomly assigned to the exposure groups (n = 6 per group) using a random number generated (Excel, version 2307). Animals were simultaneously exposed for 4 h to a low or high concentration of PCB52-laden per sex) or filtered lab air (Figure 1A). Exposure duration was limited to 4 h along with scheduled training days (30 min at 55 days of age and 2 h at 56 days of age) to acclimate animals and minimize stress. […] Animal exposure occurred for 4 h at 57 days of age. Rats are considered adolescents at this age.[38] Serum was collected immediately after the animals were removed from the nose-only apparatus by cardiac puncture under isoflurane anesthesia. Rats were perfused with saline, and organs were excised and stored at −80 °C. Body and organ weights, including brain, lungs, and thymus, were not altered by PCB52 inhalation regardless of sex or exposure (Tables S2 and S3).
PCB52 and its hydroxylated metabolites were extracted from tissues, serum, and cecum and intestinal content using a published protocol;[40],[41] see the Supporting Information. Briefly, PCB52 and its metabolites were extracted from homogenates by liquid–liquid extraction and cleaned by solid-phase extraction with acidified silica gel. PCB52 and metabolites were quantified in the multiple reaction monitoring setting (MRM) on an Agilent 7890 A GC system equipped with an Agilent 7000 Triple Quad and Agilent 7693 autosampler (Agilent Technologies, Santa Clara, CA); see the Supporting Information.
PCB52 and metabolite levels, adjusted for tissue wet weight, are reported as the mean ± standard deviation. Differences in PCB52 and metabolite levels from the GC-MS/MS analysis were analyzed with the Tobit regression model because some measurements are below the detection limit. […]

[3] = set-up: method as in PMID 24275706; settings: cited from earlier work
[4] = set-up: method as in PMID 23582014; settings: male rats exposed acutely to PCB11 vapors; cited from earlier work

Which “detection frequency in the rat brain” value [1] does the source give for `Oc1cc(Cl)c(-c2cc(Cl)ccc2Cl)cc1Cl` [4-OH-PCB52, 2,2′,5,5′-Tetrachlorobiphenyl-4-ol] here?
The value was 20%.

What about the concentration at 4 h ([2]; both sexes, brain, irrespective of sex and exposure group, GC-MS/MS, read-out: level in the brain (below the detection limit)) of the same molecule?
The concentration at 4 h was < 0.16 ng/g.

What about the concentration at 4 h ([2]; female, adipose, female, high dose, mean, read-out: PCB or metabolite detected level, Adipose) of the same molecule?
The concentration at 4 h was 0.2 ng/g.

What about the concentration at 4 h ([2]; female, cecum, female, high dose, mean, read-out: PCB or metabolite detected level, Cecum) of the same molecule?
Its concentration at 4 h is 3 ng/g.

And the concentration at 4 h ([2]; female, cecum, female, low dose, mean, read-out: PCB or metabolite detected level, Cecum)?
The concentration at 4 h was 2 ng/g.

What about the concentration at 4 h ([2]; female, intestinal content, female, high dose, mean, read-out: PCB or metabolite detected level, Intestinal content) of the same molecule?
Its concentration at 4 h is 5 ng/g.

And the concentration at 4 h ([2]; female, intestinal content, female, low dose, mean, read-out: PCB or metabolite detected level, Intestinal content)?
Its concentration at 4 h is 4 ng/g.

And the concentration at 4 h ([2]; female, liver, female, high dose, mean, read-out: PCB or metabolite detected level, Liver)?
The concentration at 4 h was 0.2 ng/g.

And the concentration at 4 h ([2]; female, liver, female, low dose, mean, read-out: PCB or metabolite detected level, Liver)?
Its concentration at 4 h is 0.2 ng/g.

What about the concentration at 4 h ([2]; female, lung, female, high dose, mean, read-out: PCB or metabolite detected level, Lung) of the same molecule?
The concentration at 4 h was 0.2 ng/g.

And the concentration at 4 h ([2]; female, lung, female, low dose, mean, read-out: PCB or metabolite detected level, Lung)?
The concentration at 4 h was 0.1 ng/g.

What about the concentration at 4 h ([2]; female, serum, female, high dose, mean, read-out: PCB or metabolite detected level, Serum) of the same molecule?
The concentration at 4 h was 0.1 ng/g.

What about the concentration at 4 h ([2]; female, serum, female, low dose, mean, read-out: PCB or metabolite detected level, Serum) of the same molecule?
Its concentration at 4 h is 0.4 ng/g.

And the concentration at 4 h ([2]; male, adipose, male, high dose, mean, read-out: PCB or metabolite detected level, Adipose)?
The concentration at 4 h was 0.2 ng/g.

What about the concentration at 4 h ([2]; male, cecum, male, high dose, mean, read-out: PCB or metabolite detected level, Cecum) of the same molecule?
Its concentration at 4 h is 2 ng/g.

And the concentration at 4 h ([2]; male, cecum, male, low dose, mean, read-out: PCB or metabolite detected level, Cecum)?
The concentration at 4 h was 1 ng/g.

What about the concentration at 4 h ([2]; male, intestinal content, male, high dose, mean, read-out: PCB or metabolite detected level, Intestinal content) of the same molecule?
Its concentration at 4 h is 0.4 ng/g.

What about the concentration at 4 h ([2]; male, liver, male, high dose, mean, read-out: PCB or metabolite detected level, Liver) of the same molecule?
The concentration at 4 h was 0.3 ng/g.

And the concentration at 4 h ([2]; male, liver, male, low dose, mean, read-out: PCB or metabolite detected level, Liver)?
The concentration at 4 h was 0.1 ng/g.

And the concentration at 4 h ([2]; male, lung, male, high dose, mean, read-out: PCB or metabolite detected level, Lung)?
The concentration at 4 h was 0.2 ng/g.

What about the concentration at 4 h ([2]; male, lung, male, low dose, mean, read-out: PCB or metabolite detected level, Lung) of the same molecule?
Its concentration at 4 h is 0.1 ng/g.

And the concentration at 4 h ([2]; male, serum, male, high dose, mean, read-out: PCB or metabolite detected level, Serum)?
Its concentration at 4 h is 0.4 ng/g.

And the concentration at 4 h ([2]; male, serum, male, low dose, mean, read-out: PCB or metabolite detected level, Serum)?
The concentration at 4 h was 0.4 ng/g.

With `Clc1cccc(-c2cccc(Cl)c2)c1` [PCB11, 3,3′-dichlorobiphenyl] as the molecule, how does the “time to radioactivity in the systemic circulation” value ([3]; intratracheally instilled 14C-labeled PCB11) read?
The value was ≤ 12 min.

What about the “time of highest levels of extractable PCB11 metabolites in the jejunum and ileum” value ([3]; postexposure) of the same molecule?
The value was “approximately 100 min”.

What about the “rank order of tissue levels” value [4] of the same molecule?
Its value is “lung > serum > liver”.
